Experimental data published in patent US11564959B2 (SHISEIDO COMPANY, LTD., priority 2016, dated 2023).
Structures can show the parent of a compound that is named as a salt.

Legend:
[1] = system: MCSP-positive cells; assay: Tissue culture of human skin with MMP and heparanase inhibiting agents, MCSP staining; assay type: cell-based; settings: CGS27023A 10 μM and BIPBIPU 10 μM added together, 4 days of culturing, abdominal skin
From the text: DAPI was also used for nuclear staining. […] DAPI was also used for nuclear staining.

[2] = system: PDGF-BB; assay: Membrane array of cytokines in epidermis protein extract of three-dimensional skin model; assay type: cell-based; settings: CGS27023A 10^−5 M and BIPBIPU 10^−5 M added together, 2nd, 4th and 7th day, data not shown
From the text: The epidermis was collected from the skin model on the 2nd day, 4th day and 7th day of culturing, and RIPA buffer by Nacalai was used to prepare a protein extract. Using a membrane array kit (ab134002) by Abcam Co., the amounts of different cytokines in the protein extract were detected using a LAS-1000UVmini by Fujifilm and digitized with the included software, and a graph was drawn (data not shown). The cytokines whose amounts increased compared to the control were selected as candidate cytokines that promote type V collagen expression. Three cytokines including PDGF-BB were selected as candidate cytokines.

[3] = system: laminin 511; settings: CGS27023A 10 μM and BIPBIPU 10 μM added together, 4 days of culturing, abdominal skin
Description: The taken samples were cultured for 4 days in culture medium containing the MMP9 inhibiting agent CGS270234 (10 μM) and the heparanase inhibiting agent BIPBIU (10 μM).

[4] = system: MCSP-positive cells; assay: Ex vivo human skin organ culturing with HEI, MCSP staining; assay type: cell-based; settings: 0.01% HEI, 5 days, abdominal skin
[5] = target: T1, heparanase (Homo sapiens, UniProt Q9Y251); assay: Heparanase assay on heparan sulfate immobilization plate with A431 cell lysate; assay type: biochemical; settings: 0.0005%, 0.005% or 0.05% HEI, 3 hours at 37° C., FIG. 8
T1 construct: endogenous in cells; host or cells: A431 cell lysate
T1 sequence (Q9Y251 158-543 limits assumed): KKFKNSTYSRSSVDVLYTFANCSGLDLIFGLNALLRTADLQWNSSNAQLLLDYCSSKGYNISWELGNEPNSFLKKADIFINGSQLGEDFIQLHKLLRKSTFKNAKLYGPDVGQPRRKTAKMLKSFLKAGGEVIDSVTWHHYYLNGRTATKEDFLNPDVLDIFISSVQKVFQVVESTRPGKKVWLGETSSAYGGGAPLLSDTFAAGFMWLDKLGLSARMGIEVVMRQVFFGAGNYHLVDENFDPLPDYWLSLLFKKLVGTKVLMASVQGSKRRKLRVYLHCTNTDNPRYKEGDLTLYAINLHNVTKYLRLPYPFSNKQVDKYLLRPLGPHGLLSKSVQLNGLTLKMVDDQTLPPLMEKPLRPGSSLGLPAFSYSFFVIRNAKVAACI
T1 sequence (Q9Y251 36-109 limits assumed): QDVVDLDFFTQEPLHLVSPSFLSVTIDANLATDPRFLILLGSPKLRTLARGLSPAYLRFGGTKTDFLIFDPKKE
Description: A heparanase assay was carried out using a heparan sulfate immobilization plate, as described in Behzad F, et al., Analytical Biochemistry, 320, pp. 207-213, 2003. Specifically, heparan sulfate (Seikagaku, Tokyo, Japan) was reacted with photobiotin to prepare biotinylated heparan sulfate. The biotinylated heparan sulfate was fixed onto a carbohydrate-binding surface plate (Coastar, Tokyo, Japan). A431 cell lysate (50 μg/ml) and 0% HEI, 0.0005% HEI, 0.005% HEI or 0.05% HEI were added onto the biotinylated heparan sulfate immobilized plate, incubated for 3 hours at 37° C., and then rinsed with PBS-T. Next, peroxidase-avidin (Vector Laboratories, Inc. CA, USA) was incubated at 37° C. for 1 hour. A 3,3′,5,5′-tetramethylbenzidine (TMB) solution (Bio-Rad, Tokyo, Japan) was added, and the plate was further incubated at room temperature for 30 minutes. The absorbance at 450 nm was measured to determine the heparanase inhibiting effect.

[6] = target: T2, recombinant human MMP-9 (Homo sapiens, UniProt P14780); assay: MMP-9 colorimetric drug discovery kit assay; assay type: biochemical; settings: 0.0001%, 0.001% and 0.01% HEI, FIG. 9
T2 construct: purchased Enzo Life Sciences Inc
Description: An MMP9 assay was carried out using a Matrix Metalloproteinase-9 (MMP-9) colorimetric drug discovery kit (Enzo Life Sciences Inc.). Specifically, HEI was added to a recombinant human MMP-9 enzyme solution to 0.0001%, 0.001% and 0.01% concentration. After mixing with chromogenic MMP-9 substrate, the absorbance at 412 nm was measured every other minute. The MMP-9 inhibition rate (%) for HEI was calculated from the slope of the absorbance (OD/min).

[7] = system: filaggrin; assay: Ex vivo human skin organ culturing with HEI, filaggrin staining; assay type: cell-based; settings: 0.01% HEI, 5 days
Description: (§1) The taken samples were cultured for 5 days in culture medium containing 0.01% HEI. […] The excess moisture adhering to the cultured skin sample was wiped off with a Kimtowel, and after allowing it to stand for 5 minutes, a Vapometer was used for TEWL measurement, and a Corneometer was used to measure the stratum corneum moisture content.
DAPI was also used for nuclear staining.

[8] = system: human skin; assay: Ex vivo human skin organ culturing with HEI, TEWL and stratum corneum moisture; assay type: cell-based; settings: 0.01% HEI, 5 days
Description: as §1

[9] = In vivo human application test of HEI solution on the face, TEWL and stratum corneum moisture; settings: 1.5% HEI solution on one side of the face, twice a day for 4 weeks, water on other side
Description: Next, 20 males from 20 to 50 years of age were asked to apply a 1.5% HEI solution on one side of the face and water on the other side of the face, twice a day for 4 weeks. Before application, 2 weeks after application and 4 weeks after application, the TEWL was measured using a Vapometer, and a Corneometer was used to measure the stratum corneum moisture content.

[10] = system: laminin 511; assay: Ex vivo human skin organ culturing with HEI, laminin 511 staining; settings: 0.01% HEI, 5 days, abdominal skin
[11] = system: gene COL5A1 for type V collagen; assay: COL5A1 expression in human fibroblasts after addition of recombinant cytokine; assay type: cell-based; settings: normal human fibroblasts, 24 hours
Description: The selected recombinant cytokine proteins were purchased from R&D Co. Normal human fibroblasts from skin harvested from 14-month-old children were cultured for 24 hours in 10% FBS-added DMEM, and the medium in the cultured product was exchanged with another medium added to DMEM medium containing 25% serum for a prescribed concentration of each cytokine, after which culturing was continued for 24 hours. After culturing, the cells were collected and the mRNA was extracted with Trizol. The cDNA was rapidly prepared, and the aforementioned primers were used for real-time PCR to evaluate the gene expression levels of the gene COL5A1 for type V collagen (FIG. 15).

T2 sequence (P14780 107-444 limits assumed): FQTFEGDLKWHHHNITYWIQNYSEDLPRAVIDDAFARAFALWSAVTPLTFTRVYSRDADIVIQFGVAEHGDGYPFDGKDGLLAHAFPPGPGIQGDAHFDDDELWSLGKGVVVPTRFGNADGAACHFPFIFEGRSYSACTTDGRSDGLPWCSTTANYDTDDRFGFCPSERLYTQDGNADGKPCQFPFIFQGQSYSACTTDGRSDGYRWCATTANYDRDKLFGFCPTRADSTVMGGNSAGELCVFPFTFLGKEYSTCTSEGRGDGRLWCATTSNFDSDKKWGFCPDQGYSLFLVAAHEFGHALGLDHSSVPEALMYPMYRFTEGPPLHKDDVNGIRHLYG

O=C(Nc1ccc(-c2nc3ccccc3[nH]2)cc1)Nc1ccc(-c2nc3ccccc3[nH]2)cc1 [BIPBIPU, 1-[4-(1H-benzoimidazol-2-yl)phenyl]-3-[4-(1H-benzoimidazol-2-yl)phenyl]urea]
MCSP-positive cells after tissue culture [1]: maintenance or augmentation of MCSP
amount of PDGF-BB in epidermis protein extract compared to the control [2]: increased

COc1ccc(S(=O)(=O)N(Cc2cccnc2)[C@@H](C(=O)NO)C(C)C)cc1 [CGS27023A, N-hydroxy-2(R)-[[(4-methoxy-phenyl)sulfonyl](3-picolyl)amino]-3-methylbutanamide hydrochloride]
MCSP-positive cells after tissue culture [1]: maintenance or augmentation of MCSP
amount of PDGF-BB in epidermis protein extract compared to the control [2]: increased
laminin 511 in the basal membrane after tissue culture [3]: augmentation of laminin 511

O=C1NCCN1CCO [HEI, 1-(2-Hydroxyethyl)-2-imidazolidinone]
MCSP-positive cell count on the basal membrane after culturing [4]: maintained
heparanase inhibiting effect [5]: inhibit heparanase activity in a dose-dependent manner
MMP9 inhibition [6]: inhibit MMP9 activity in a dose-dependent manner
filaggrin protein expression [7]: tendency for increase
stratum corneum moisture content ([8]; Corneometer): increased
TEWL ([8]; Vapometer): decreased
TEWL [9]: decreased
stratum corneum moisture content [9]: increased
amount of laminin 511 after culturing [10]: maintained

B1: PDGF-BB: recombinant cytokine protein purchased from R&D Co. (protein, UniProt P01127 82-190, looked up)
Platelet-derived growth …: SLGSLTIAEPAMIAECKTRTEVFEISRRLIDRTNANFLVWPPCVEVQRCSGCCNNRNVQCRPTQVQLRPVQVRKIEIVRKKPIFKKATVTLEDHLACKCETVAAARPVT
type V collagen production (COL5A1 gene expression) [11]: significantly increased
